Experimental data published in patent US11807835B2, “Detergent compositions containing a stabilized enzyme by phosphonates” (ECOLAB USA INC., priority 2016, dated 2023).

Key:
Format in all cases: biochemical
protease = assay: Protease activity retention in detergent use solution (4000 ppm, 5 GPG water; peptidyl substrate, glycine buffer pH 9.0); settings: for Relative Protease Enzyme Activity: use solution at 120° F.
Method: (§1) The enzyme activities in the detergents with different phosphonate levels were tested at 4000 ppm in 5 grains per gallon (GPG) water at 120° F. with various time points collected up to 4 hours, after a use solution was generated from the detergent composition. During the tests, the samples at different time points were collected and immediately frozen in an acetone/dry ice bath and stored in −80° C. before the activity of the enzyme was evaluated. For the use of such an assay, t=0 min was the reference point for 100% enzyme activity.
(§2) Assays of enzyme activity in formulations (% retention) were conducted to simulate a presoak condition in a beaker using the chemistry, temperature, and pH conditions relevant to manual warewash or presoak applications. Enzyme activity is an indicator of the stability of the enzyme in the detergent, specifically in an aqueous use solution within a sump (which is under conditions of high pH, temperature and dilution).
The analysis by protease assay was conducted as follows. For the assays, a detergent composition was used to generate an aqueous use solution evaluated herein.
(§3) Enzyme activity under presoak or manual warewash conditions was traced quantitatively using a standard protease assay. Samples were prepared under bench top conditions, whereby the use solution from a detergent composition or detergent was obtained and maintained at a presoak or manual warewash temperature in a stirring water bath. After the time course for assessing enzyme stability is initiated, aliquots were taken at various time points and flash-frozen. A time=0 sample was prepared for each series by dissolving the detergent formulation at room temperature, mixing thoroughly, and flash freezing. Samples were thawed and diluted as necessary in an assay buffer usually for use in the protease assay. A glycine buffer at pH 9.0 is used here. The assay monitored the direct reaction of the protease on a small, commercially available peptidyl substrate, with liberation of the product providing correlation to the active enzyme content. The product was detected using a plate reader with an appreciable dynamic range (upper absorbance limit of the instrument >3.5). Enzyme activity levels were assessed relative to a calibration curve with average values for replicate tests used to map protease stability under presoak or manual warewash use conditions. Enzyme retention at each time point was calculated as the % enzyme activity relative to the time=0 sample.

[1] = system: enzyme (protease, amylase, lipase); assay: Overall effects of phosphonates on enzyme activity (Table 3); settings: overall effect of the phosphonate on enzyme activity in the detergent use solution
Method: as §1, §2
The relative enzyme activities in a use solution of the tested detergent compositions containing a different phosphonate at different concentrations over a period time are listed in Table 4A-Table 4E, Table 5A-Table 5E, and Table 6A-Table 6F.

amylase = assay: Amylase activity retention in detergent use solution (4000 ppm, 5 GPG water; ethylidene substrate EPS, HEPES buffer pH 8.0)
Method: as §1, §2, §3
The analysis by lipase and amylase assay was conducted similarly, except with a different substrate and buffers. For lipase activity, the substrate is p-nitrophenyl valerate, and for amylase, the substrate is an ethylidene substrate (EPS). The buffer used in lipase assay is TRIS (Tris(hydroxymethyl)aminomethane) buffer at pH 8.0, and in amylase assay HEPES (4-(2-hydroxyethyl)-1-piperazineethanesulfonic acid) buffer at pH 8.0.

CC(O)(P(=O)(O)O)P(=O)(O)O [HEDP, 1-hydroxy ethylidene-1,1-diphosphonic acid]
Relative Protease Enzyme Activity (protease; All Ash formula, phosphonate 0.3 wt-%, time 0 min): 100.00%
Relative Protease Enzyme Activity (protease; All Ash formula, phosphonate 0.3 wt-%, time 5 min): 8.63%
Relative Protease Enzyme Activity (protease; All Ash formula, phosphonate 0.3 wt-%, time 10 min): 3.25%
Relative Protease Enzyme Activity (protease; All Ash formula, phosphonate 0.3 wt-%, time 20 min): 0.61%
Relative Protease Enzyme Activity (protease; All Ash formula, phosphonate 0.3 wt-%, time 40 min): −1.32%
Relative Protease Enzyme Activity (protease; All Ash formula, phosphonate 0.3 wt-%, time 60 min): −1.66%
Relative Protease Enzyme Activity (protease; All Ash formula, phosphonate 0.3 wt-%, time 90 min): −0.97%
Relative Protease Enzyme Activity (protease; All Ash formula, phosphonate 0.3 wt-%, time 120 min): −1.23%
Relative Protease Enzyme Activity (protease; All Ash formula, phosphonate 0.3 wt-%, time 150 min): −0.85%
Relative Protease Enzyme Activity (protease; All Ash formula, phosphonate 0.3 wt-%, time 180 min): −0.93%
Relative Protease Enzyme Activity (protease; All Ash formula, phosphonate 0.3 wt-%, time 210 min): −0.42%
Relative Protease Enzyme Activity (protease; All Ash formula, phosphonate 0.3 wt-%, time 240 min): −0.42%
Relative Protease Enzyme Activity (protease; base formula, phosphonate 0.3 wt-%, time 0 min): 100.00%
Relative Protease Enzyme Activity (protease; base formula, phosphonate 0.3 wt-%, time 5 min): 52.21%
Relative Protease Enzyme Activity (protease; base formula, phosphonate 0.3 wt-%, time 10 min): 32.95%
Relative Protease Enzyme Activity (protease; base formula, phosphonate 0.3 wt-%, time 20 min): 15.91%
Relative Protease Enzyme Activity (protease; base formula, phosphonate 0.3 wt-%, time 40 min): 8.68%
Relative Protease Enzyme Activity (protease; base formula, phosphonate 0.3 wt-%, time 60 min): 5.52%
Relative Protease Enzyme Activity (protease; base formula, phosphonate 0.3 wt-%, time 90 min): 4.10%
Relative Protease Enzyme Activity (protease; base formula, phosphonate 0.3 wt-%, time 120 min): 3.10%
Relative Protease Enzyme Activity (protease; base formula, phosphonate 0.3 wt-%, time 150 min): 2.39%
Relative Protease Enzyme Activity (protease; base formula, phosphonate 0.3 wt-%, time 180 min): 1.65%
Relative Protease Enzyme Activity (protease; base formula, phosphonate 0.3 wt-%, time 210 min): 1.36%
Relative Protease Enzyme Activity (protease; base formula, phosphonate 0.3 wt-%, time 240 min): 1.20%
Relative Protease Enzyme Activity (protease; base formula, phosphonate 0.6 wt-%, time 0 min): 100.00%
Relative Protease Enzyme Activity (protease; base formula, phosphonate 0.6 wt-%, time 5 min): 69.69%
Relative Protease Enzyme Activity (protease; base formula, phosphonate 0.6 wt-%, time 10 min): 51.90%
Relative Protease Enzyme Activity (protease; base formula, phosphonate 0.6 wt-%, time 20 min): 27.67%
Relative Protease Enzyme Activity (protease; base formula, phosphonate 0.6 wt-%, time 40 min): 12.41%
Relative Protease Enzyme Activity (protease; base formula, phosphonate 0.6 wt-%, time 60 min): 7.62%
Relative Protease Enzyme Activity (protease; base formula, phosphonate 0.6 wt-%, time 90 min): 4.70%
Relative Protease Enzyme Activity (protease; base formula, phosphonate 0.6 wt-%, time 120 min): 2.94%
Relative Protease Enzyme Activity (protease; base formula, phosphonate 0.6 wt-%, time 150 min): 1.79%
Relative Protease Enzyme Activity (protease; base formula, phosphonate 0.6 wt-%, time 180 min): 0.92%
Relative Protease Enzyme Activity (protease; base formula, phosphonate 0.6 wt-%, time 210 min): 0.71%
Relative Protease Enzyme Activity (protease; base formula, phosphonate 0.6 wt-%, time 240 min): 0.45%
Relative Protease Enzyme Activity (protease; base formula, phosphonate at 0.1% elemental phosphorus, time 0 min): 100.00%
Relative Protease Enzyme Activity (protease; base formula, phosphonate at 0.1% elemental phosphorus, time 5 min): 77.74%
Relative Protease Enzyme Activity (protease; base formula, phosphonate at 0.1% elemental phosphorus, time 10 min): 53.71%
Relative Protease Enzyme Activity (protease; base formula, phosphonate at 0.1% elemental phosphorus, time 20 min): 23.58%
Relative Protease Enzyme Activity (protease; base formula, phosphonate at 0.1% elemental phosphorus, time 40 min): 9.12%
Relative Protease Enzyme Activity (protease; base formula, phosphonate at 0.1% elemental phosphorus, time 60 min): 5.36%
Relative Protease Enzyme Activity (protease; base formula, phosphonate at 0.1% elemental phosphorus, time 90 min): 3.76%
Relative Protease Enzyme Activity (protease; base formula, phosphonate at 0.1% elemental phosphorus, time 120 min): 2.44%
Relative Protease Enzyme Activity (protease; base formula, phosphonate at 0.1% elemental phosphorus, time 150 min): 1.45%
Relative Protease Enzyme Activity (protease; base formula, phosphonate at 0.1% elemental phosphorus, time 180 min): 0.74%
Relative Protease Enzyme Activity (protease; base formula, phosphonate at 0.1% elemental phosphorus, time 210 min): 0.64%
Relative Protease Enzyme Activity (protease; base formula, phosphonate at 0.1% elemental phosphorus, time 240 min): 0.45%
enzyme activity of amine salt of the phosphonate versus non-neutralized phosphonate (protease; phosphonate neutralized with an amine, such as triethanolamine): much improved enzyme activity
Stability (effects on enzyme activity) [1]: No
Relative Amylase Enzyme Activity (amylase; All Ash formula, phosphonate 0.3 wt-%, use solution at 120° F., time 0 min): 92.90%
Relative Amylase Enzyme Activity (amylase; All Ash formula, phosphonate 0.3 wt-%, use solution at 120° F., time 5 min): 100.00%
Relative Amylase Enzyme Activity (amylase; All Ash formula, phosphonate 0.3 wt-%, use solution at 120° F., time 10 min): 97.04%
Relative Amylase Enzyme Activity (amylase; All Ash formula, phosphonate 0.3 wt-%, use solution at 120° F., time 20 min): 87.85%
Relative Amylase Enzyme Activity (amylase; All Ash formula, phosphonate 0.3 wt-%, use solution at 120° F., time 40 min): 70.85%
Relative Amylase Enzyme Activity (amylase; All Ash formula, phosphonate 0.3 wt-%, use solution at 120° F., time 60 min): 55.60%
Relative Amylase Enzyme Activity (amylase; All Ash formula, phosphonate 0.3 wt-%, use solution at 120° F., time 90 min): 63.30%
Relative Amylase Enzyme Activity (amylase; All Ash formula, phosphonate 0.3 wt-%, use solution at 120° F., time 120 min): 58.18%
Relative Amylase Enzyme Activity (amylase; All Ash formula, phosphonate 0.3 wt-%, use solution at 120° F., time 150 min): 54.50%
Relative Amylase Enzyme Activity (amylase; All Ash formula, phosphonate 0.3 wt-%, use solution at 120° F., time 180 min): 45.78%
Relative Amylase Enzyme Activity (amylase; All Ash formula, phosphonate 0.3 wt-%, use solution at 120° F., time 210 min): 44.79%
Relative Amylase Enzyme Activity (amylase; All Ash formula, phosphonate 0.3 wt-%, use solution at 120° F., time 240 min): 41.67%
Relative Amylase Enzyme Activity (amylase; base formula, phosphonate 0.3 wt-%, use solution at 120° F., time 0 min): 100.00%
Relative Amylase Enzyme Activity (amylase; base formula, phosphonate 0.3 wt-%, use solution at 120° F., time 5 min): 81.99%
Relative Amylase Enzyme Activity (amylase; base formula, phosphonate 0.3 wt-%, use solution at 120° F., time 10 min): 90.32%
Relative Amylase Enzyme Activity (amylase; base formula, phosphonate 0.3 wt-%, use solution at 120° F., time 20 min): 95.23%
Relative Amylase Enzyme Activity (amylase; base formula, phosphonate 0.3 wt-%, use solution at 120° F., time 40 min): 84.92%
Relative Amylase Enzyme Activity (amylase; base formula, phosphonate 0.3 wt-%, use solution at 120° F., time 60 min): 72.27%
Relative Amylase Enzyme Activity (amylase; base formula, phosphonate 0.3 wt-%, use solution at 120° F., time 90 min): 79.95%
Relative Amylase Enzyme Activity (amylase; base formula, phosphonate 0.3 wt-%, use solution at 120° F., time 120 min): 84.46%
Relative Amylase Enzyme Activity (amylase; base formula, phosphonate 0.3 wt-%, use solution at 120° F., time 150 min): 79.54%
Relative Amylase Enzyme Activity (amylase; base formula, phosphonate 0.3 wt-%, use solution at 120° F., time 180 min): 84.18%
Relative Amylase Enzyme Activity (amylase; base formula, phosphonate 0.3 wt-%, use solution at 120° F., time 210 min): 69.49%
Relative Amylase Enzyme Activity (amylase; base formula, phosphonate 0.3 wt-%, use solution at 120° F., time 240 min): 88.63%
Relative Amylase Enzyme Activity (amylase; base formula, phosphonate 0.6 wt-%, use solution at 120º F., time 0 min): 100.00%
Relative Amylase Enzyme Activity (amylase; base formula, phosphonate 0.6 wt-%, use solution at 120º F., time 5 min): 96.09%
Relative Amylase Enzyme Activity (amylase; base formula, phosphonate 0.6 wt-%, use solution at 120º F., time 10 min): 99.71%
Relative Amylase Enzyme Activity (amylase; base formula, phosphonate 0.6 wt-%, use solution at 120º F., time 20 min): 91.20%
Relative Amylase Enzyme Activity (amylase; base formula, phosphonate 0.6 wt-%, use solution at 120º F., time 40 min): 94.89%
Relative Amylase Enzyme Activity (amylase; base formula, phosphonate 0.6 wt-%, use solution at 120º F., time 60 min): 97.28%
Relative Amylase Enzyme Activity (amylase; base formula, phosphonate 0.6 wt-%, use solution at 120º F., time 90 min): 94.67%
Relative Amylase Enzyme Activity (amylase; base formula, phosphonate 0.6 wt-%, use solution at 120º F., time 120 min): 88.12%
Relative Amylase Enzyme Activity (amylase; base formula, phosphonate 0.6 wt-%, use solution at 120º F., time 150 min): 90.33%
Relative Amylase Enzyme Activity (amylase; base formula, phosphonate 0.6 wt-%, use solution at 120º F., time 180 min): 86.96%
Relative Amylase Enzyme Activity (amylase; base formula, phosphonate 0.6 wt-%, use solution at 120º F., time 210 min): 96.92%
Relative Amylase Enzyme Activity (amylase; base formula, phosphonate 0.6 wt-%, use solution at 120º F., time 240 min): 92.50%
Relative Amylase Enzyme Activity (amylase; base formula, phosphonate at 0.1% elemental phosphorus level, use solution at 120º F., time 5 min): 100.00%
Relative Amylase Enzyme Activity (amylase; base formula, phosphonate at 0.1% elemental phosphorus level, use solution at 120º F., time 10 min): 97.58%
Relative Amylase Enzyme Activity (amylase; base formula, phosphonate at 0.1% elemental phosphorus level, use solution at 120º F., time 20 min): 90.30%
Relative Amylase Enzyme Activity (amylase; base formula, phosphonate at 0.1% elemental phosphorus level, use solution at 120º F., time 40 min): 81.48%
Relative Amylase Enzyme Activity (amylase; base formula, phosphonate at 0.1% elemental phosphorus level, use solution at 120º F., time 60 min): 83.84%
Relative Amylase Enzyme Activity (amylase; base formula, phosphonate at 0.1% elemental phosphorus level, use solution at 120º F., time 90 min): 85.26%
Relative Amylase Enzyme Activity (amylase; base formula, phosphonate at 0.1% elemental phosphorus level, use solution at 120º F., time 120 min): 82.59%
Relative Amylase Enzyme Activity (amylase; base formula, phosphonate at 0.1% elemental phosphorus level, use solution at 120º F., time 180 min): 75.47%
Relative Amylase Enzyme Activity (amylase; base formula, phosphonate at 0.1% elemental phosphorus level, use solution at 120º F., time 210 min): 85.77%
Relative Amylase Enzyme Activity (amylase; base formula, phosphonate at 0.1% elemental phosphorus level, use solution at 120º F., time 240 min): 81.23%
